The subject of this assay is hTREX1 HCT116. The assay is described as follows: hTREX1 HCT116 Cell Assay (Lucia luciferase reporter, Type I interferon induction). In kind it is cell-based. As to conditions: Homo sapiens, HCT-116, HCT116 dual cells, 4h compound, then pBR322/BstNI DNA transfection, 48h. The text has this: HCT116 dual cells (Invivogen, San Diego, CA, USA) are derived from the human HCT116 colorectal carcinoma cell line. Cells have been selected for the stable integration of SEAP and Luciferase reporter genes, which expression is under the control of 5 tandem response elements for NF-KB/AP1 and STAT1/STAT2, respectively. The cell line was used to monitor Type I interferon induction and subsequent signaling by measuring the activity of the Lucia luciferase secreted in the culture medium.
HCT116 cells were plated in 96-well plate(s) at 40,000 cells/well in 100 uL DMEM supplemented with 10% FBS and 25 mM Hepes (pH 7.2-7.5). After overnight settling, cells were treated with TREX1i for 4h (maximum DMSO fraction was 0.1%) before 1 ug/mL pBR322/BstNI restriction digest (New England Biolabs, Ipswich, MA, USA) was transfected with Lipofectamine LTX (ThermoFisher, Grand Island, NY, USA), according to product manual recommendations. Briefly, Lipofectamine LTX (0.35 uL/well) was diluted in OptiMEM (5 uL/well). pBR322/BstNI (100 ng/well) was diluted in OptiMEM (5 uL/well) before Plus reagent (0.1 uL/100 ng DNA) was added. After 5 min incubation at room temperature, the DNA mixture was mixed dropwise with the diluted Lipofectamine LTX. After an additional 10 min incubation, the transfection mix (10 uL/well) was added to the cells. Cells were maintained at 37 C for 48h before monitoring the Lucia Luciferase activity from the cell culture medium.
For orientation: Reporter assays use an easily measured gene product as a stand-in for the process of interest.

These results are taken from patent publication US20240262814A1, “MODULATORS OF TREX1” (Constellation Pharmaceuticals, Inc., priority 2021, published 2024).

As a reminder, the IC50 is the concentration that inhibits the measured activity by half. Read a high IC50 as lower potency. `Cn1c([C@H](C(c2ccccc2)c2ccccc2)C(F)(F)F)nc(C(=O)Nc2cnoc2)c(O)c1=O` (single isomer, unassigned) [Example 20 Isomer 1, 5-Hydroxy-N-(isoxazol-4-yl)-1-methyl-6-oxo-2-(1,1,1-trifluoro-3,3-diphenylpropan-2-yl)-1,6-dihydropyrimidine-4-carboxamide] gave an IC50 of over 100 nM.

The molecule `CC(c1nc(C(=O)Nc2cnoc2)c(O)c(=O)n1C)C(c1ccccc1)c1cc(C(=O)N(C)C)ccc1C#N` (single isomer, unassigned) [Example 17 Isomer 3] had an IC50 of 10 to 100 nM.

Molecule `Cn1c([C@@H](C(c2ccccc2C#N)c2ccccc2C#N)C(F)(F)F)nc(C(=O)Nc2cnoc2)c(O)c1=O` (single isomer, unassigned) [Example 21 Isomer 1, 2-(3,3-bis(2-cyanophenyl)-1,1,1-trifluoropropan-2-yl)-5-hydroxy-N-(isoxazol-4-yl)-1-methyl-6-oxo-1,6-dihydropyrimidine-4-carboxamide] gave an IC50 of under 10 nM.

For `CC(c1nc(C(=O)Nc2cnoc2)c(O)c(=O)n1C)C(c1ccccc1C#N)c1ccccc1C#N` (single isomer, unassigned) [Example 4 Isomer 2], the IC50 is under 10 nM.

In turn, `CC(c1nc(C(=O)Nc2cnoc2)c(O)c(=O)n1C)C(c1ccccc1)c1ccccc1` (single isomer, unassigned) [Example 1 Isomer 1, 2-(1,1-diphenylpropan-2-yl)-5-hydroxy-N-(isoxazol-4-yl)-1-methyl-6-oxo-1,6-dihydro pyrimidine-4-carboxamide] yielded an IC50 of over 100 nM.

In the case of `C[C@H](c1nc(C(=O)Nc2cnoc2)c(O)c(=O)n1C)[C@H](c1ccccc1)c1ccccc1C(F)(F)F` (single isomer, unassigned) [Example 14 Isomer 2, 5-Hydroxy-N-(isoxazol-4-yl)-1-methyl-6-oxo-2-(1-phenyl-1-(2-(trifluoromethyl)phenyl)propan-2-yl)-1,6-dihydropyrimidine-4-carboxamide], the IC50 is over 100 nM.

In the case of `C[C@H](c1nc(C(=O)Nc2cnoc2)c(O)c(=O)n1C)C(c1ccccc1Cl)c1ccccc1Cl` (single isomer, unassigned) [Example 15 Isomer 1, 2-(1,1-bis(2-chlorophenyl)propan-2-yl)-5-hydroxy-N-(isooxazol-4-yl)-1-methyl-6-oxo-1,6-dihydropyrimidine-4-carboxamide], the IC50 was 10 to 100 nM.
